The values that follow come from US11407737B2, “Inhibitors of RAF kinases” (Kinnate Biopharma Inc., priority 2020, dated 2022).

Broadly, the IC50 is the concentration that gives 50% inhibition.

Bounds are passed on as bounds.

Chain of human RAF1 (P04049 whole entry): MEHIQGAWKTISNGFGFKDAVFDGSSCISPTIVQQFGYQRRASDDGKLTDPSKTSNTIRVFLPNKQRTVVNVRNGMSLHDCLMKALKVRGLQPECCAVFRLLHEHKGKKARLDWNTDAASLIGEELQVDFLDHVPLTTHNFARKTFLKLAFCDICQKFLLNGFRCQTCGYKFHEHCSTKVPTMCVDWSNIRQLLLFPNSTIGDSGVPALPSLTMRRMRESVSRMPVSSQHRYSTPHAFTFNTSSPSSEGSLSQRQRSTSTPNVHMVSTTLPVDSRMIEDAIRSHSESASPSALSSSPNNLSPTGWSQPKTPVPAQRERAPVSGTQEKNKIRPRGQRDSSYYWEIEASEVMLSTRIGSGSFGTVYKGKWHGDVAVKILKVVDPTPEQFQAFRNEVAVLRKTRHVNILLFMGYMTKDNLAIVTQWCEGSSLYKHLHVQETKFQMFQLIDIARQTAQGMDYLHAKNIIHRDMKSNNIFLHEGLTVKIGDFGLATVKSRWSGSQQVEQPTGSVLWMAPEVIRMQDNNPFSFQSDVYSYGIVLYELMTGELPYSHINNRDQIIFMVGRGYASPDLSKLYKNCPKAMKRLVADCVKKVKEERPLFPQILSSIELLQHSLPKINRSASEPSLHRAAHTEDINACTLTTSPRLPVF

For this test, the target named is human RAF1 (Homo sapiens (Human), UniProt P04049). Nature of the test: Protein kinase assay (radiometric 33P-ATP, MEK1 (K97R) substrate), RAF-1. Format: biochemical. The settings on record: human MEK1 (K97R) substrate 3 micromolar, ATP 10 micromolar; 10-dose, 3-fold serial dilution starting at 10 micromolar; read-out: RAF-1 IC50. The procedure:
Example 1: Kinase Assay Protocol
Assay platform was used to measure kinase/inhibitor interactions as described previously (Anastassiadis et al., 2011). In brief, for each reaction, kinase and substrate were mixed in a buffer containing 20 mM HEPES (pH 7.5), 10 mM MgCl2, 1 mM EGTA, 0.02% Brij35, 0.02 mg/mL BSA, 0.1 mM Na3VO4, 2 mM DTT, and 1% DMSO. All compounds were solubilized in DMSO. Compounds were then added to each reaction mixture via acoustic dispense using an ECHO 550 nanoliter dispenser. For human RAF1 testing, human MEK1 (K97R) was used as a substrate at a concentration of 3 micromolar, with a final ATP concentration of 10 micromolar. For human BRAF testing, human MEK1 (K97R) was used as a substrate at 1 micromolar concentration, with a final ATP concentration of 25 micromolar. […] After a 20-min incubation, ATP (Sigma-Aldrich, St. Louis, Mo. 63178) and [g33P] ATP (specific activity 10 microCi/microliter) purchased at PerkinElmer (Boston, Mass., 02118 Cat #BLU 003H250UC) were added at a final total concentration of […]. Reactions were carried out at room temperature for 2 hr and spotted onto P81 ion exchange cellulose chromatography paper (Reaction Biology). Filter paper was washed in 0.75% phosphoric acid to remove unincorporated ATP. The percent remaining kinase activity relative to a vehicle-containing (DMSO) kinase reaction was calculated for each kinase/inhibitor pair. IC50 values were calculated using Prism 5 (GraphPad).
On to `Cc1ccc(NC(=O)N2CC[C@@H](CC(F)(F)F)C2)cc1-c1cc(-c2c[nH]nc2C)nc(N2CCOCC2)c1` [Example 47, (3S)—N-[4-methyl-3-[2-(3-methyl-1H-pyrazol-4-yl)-6-(morpholin-4-yl)pyridin-4-yl]phenyl]-3-(2,2,2-trifluoroethyl)pyrrolidine-1-carboxamide], for which the IC50 lay in the range of 1 to 10 nM.

In the case of `Cc1ccc(NC(=O)N2CC[C@@H](CC(F)(F)F)C2)cc1-c1cc(-c2cnn(C)c2C)nc(N2CCOCC2)c1` [Example 48, (3S)—N-[3-[2-(1,5-dimethylpyrazol-4-yl)-6-(morpholin-4-yl)pyridin-4-yl]-4-methylphenyl]-3-(2,2,2-trifluoroethyl)pyrrolidine-1-carboxamide], the IC50 is under 1 nM.

`Cc1ccc(NC(=O)N2CC[C@@H](CC(F)(F)F)C2)cc1-c1cc(-c2ccnn2C)nc(N2CCOCC2)c1` [Example 49, (3S)—N-[4-methyl-3-[2-(2-methylpyrazol-3-yl)-6-(morpholin-4-yl)pyridin-4-yl]phenyl]-3-(2,2,2-trifluoroethyl)pyrrolidine-1-carboxamide]: the IC50 is under 1 nM.

Turning to `Cc1cc(-c2cc(-c3cc(NC(=O)N4CC[C@@H](CC(F)(F)F)C4)ccc3C)cc(N3CCOCC3)n2)n(C)n1` [Example 50, (3S)—N-[3-[2-(2,5-dimethylpyrazol-3-yl)-6-(morpholin-4-yl)pyridin-4-yl]-4-methylphenyl]-3-(2,2,2-trifluoroethyl)pyrrolidine-1-carboxamide], the IC50 was 1 to 10 nM.

Regarding `Cc1ccc(NC(=O)N2CC[C@@H](CC(F)(F)F)C2)cc1-c1cc(-c2c(C)n[nH]c2C)nc(N2CCOCC2)c1` [Example 51, (3S)—N-[3-[2-(3,5-dimethyl-1H-pyrazol-4-yl)-6-(morpholin-4-yl)pyridin-4-yl]-4-methylphenyl]-3-(2,2,2-trifluoroethyl)pyrrolidine-1-carboxamide], the IC50 was in the range of 1 to 10 nM.

On to `Cc1ccc(NC(=O)N2CC[C@@H](CC(F)(F)F)C2)cc1-c1cc(-c2cc(C)n(C)n2)nc(N2CCOCC2)c1` [Example 52, (3S)—N-[3-[2-(1,5-dimethylpyrazol-3-yl)-6-(morpholin-4-yl)pyridin-4-yl]-4-methylphenyl]-3-(2,2,2-trifluoroethyl)pyrrolidine-1-carboxamide], for which the IC50 fell in the range of 1 to 10 nM.

On to `Cc1ccc(NC(=O)N2CC[C@@H](CC(F)(F)F)C2)cc1-c1cc(-c2c[nH]cn2)nc(N2CCOCC2)c1` [Example 53, (3S)—N-[3-[2-(1H-imidazol-4-yl)-6-(morpholin-4-yl)pyridin-4-yl]-4-methylphenyl]-3-(2,2,2-trifluoroethyl)pyrrolidine-1-carboxamide], for which the IC50 fell in the range of 1 to 10 nM.

On to `Cc1ccc(NC(=O)N2CC[C@@H](CC(F)(F)F)C2)cc1-c1cc(-c2cn(C)cn2)nc(N2CCOCC2)c1` [Example 54, (3S)—N-{4-methyl-3-[2-(1-methylimidazol-4-yl)-6-(morpholin-4-yl)pyridin-4-yl]phenyl}-3-(2,2,2-trifluoroethyl)pyrrolidine-1-carboxamide], for which the IC50 is 1 to 10 nM.

As to `Cc1ccc(NC(=O)N2CC[C@@H](CC(F)(F)F)C2)cc1-c1cc(C#CC(C)N)nc(N2CCOCC2)c1` (stereo partly drawn) [Example 55, (3S)—N-{3-[2-(3-aminobut-1-yn-1-yl)-6-(morpholin-4-yl)pyridin-4-yl]-4-methylphenyl}-3-(2,2,2-trifluoroethyl)pyrrolidine-1-carboxamide], the IC50 lay within 1 to 10 nM.

For the compound `Cc1ccc(NC(=O)N2CC[C@@H](CC(F)(F)F)C2)cc1-c1cc(N2CCOCC2)nc(C(F)(F)F)c1` [Example 56, (3S)—N-[4-methyl-3-[2-(morpholin-4-yl)-6-(trifluoromethyl)pyridin-4-yl]phenyl]-3-(2,2,2-trifluoroethyl)pyrrolidine-1-carboxamide], the concentration for half-maximal inhibition (IC50) is 1 to 10 nM.

On to `Cc1ccc(NC(=O)N2CC[C@@H](CC(F)(F)F)C2)cc1-c1cc(C(F)F)nc(N2CCOCC2)c1` [Example 57, (3S)—N-{3-[2-(difluoromethyl)-6-(morpholin-4-yl)pyridin-4-yl]-4-methylphenyl}-3-(2,2,2-trifluoroethyl)pyrrolidine-1-carboxamide], for which the IC50 is 1 to 10 nM.

As to `Cc1ccc(NC(=O)N2CC[C@@H](CC(F)(F)F)C2)cc1-c1cc(-c2cnn(CCO)c2)nc(N2CCOCC2)c1` [Example 58, (3S)—N-(3-(2-(1-(2-hydroxyethyl)-1H-pyrazol-4-yl)-6-morpholinopyridin-4-yl)-4-methylphenyl)-3-(2,2,2-trifluoroethyl)pyrrolidine-1-carboxamide], the IC50 was in the range of 1 to 10 nM.

On to `Cc1ccc(NC(=O)N2CC[C@@H](CC(F)(F)F)C2)cc1-c1cc(-c2ccnn2CCO)nc(N2CCOCC2)c1` [Example 59, (3S)—N-(3-{2-[2-(2-hydroxyethyl)pyrazol-3-yl]-6-(morpholin-4-yl)pyridin-4-yl}-4-methylphenyl)-3-(2,2,2-trifluoroethyl)pyrrolidine-1-carboxamide], for which the IC50 is 1 to 10 nM.

As for `Cc1ccc(NC(=O)N2CC[C@@H](CC(F)(F)F)C2)cc1-c1cc(CO)nc(N2CCOCC2)c1` [Example 60, (3S)—N-[3-[2-(hydroxymethyl)-6-(morpholin-4-yl)pyridin-4-yl]-4-methylphenyl]-3-(2,2,2-trifluoroethyl)pyrrolidine-1-carboxamide], the half-inhibitory concentration (IC50) was 1 to 10 nM.

As for `Cc1ccc(NC(=O)N2CC[C@@H](CC(F)(F)F)C2)cc1-c1cc(-c2nncn2C)nc(N2CCOCC2)c1` [Example 61, (3S)—N-{4-methyl-3-[2-(4-methyl-1,2,4-triazol-3-yl)-6-(morpholin-4-yl)pyridin-4-yl]phenyl}-3-(2,2,2-trifluoroethyl)pyrrolidine-1-carboxamide], the IC50 lay in the range of 1 to 10 nM.

In the case of `Cc1ccc(NC(=O)N2CCO[C@H](C(F)(F)F)C2)cc1-c1cc(-c2cnn(C)c2)nc(N2CCOCC2)c1` [Example 62, (2S)—N-{4-methyl-3-[2-(1-methylpyrazol-4-yl)-6-(morpholin-4-yl)pyridin-4-yl]phenyl}-2-(trifluoromethyl)morpholine-4-carboxamide], the IC50 was 1 to 10 nM.

For the compound `Cc1ccc(NC(=O)N2CCO[C@@H](C(F)(F)F)C2)cc1-c1cc(-c2cnn(C)c2)nc(N2CCOCC2)c1` [Example 63, (2R)—N-{4-methyl-3-[2-(1-methylpyrazol-4-yl)-6-(morpholin-4-yl)pyridin-4-yl]phenyl}-2-(trifluoromethyl)morpholine-4-carboxamide], the IC50 is 1 to 10 nM.

For `Cc1ccc(NC(=O)N2CC[C@@H](OC(F)(F)F)C2)cc1-c1cc(-c2cnn(C)c2)nc(N2CCOCC2)c1` [Example 64, (3R)—N-{4-methyl-3-[2-(1-methylpyrazol-4-yl)-6-(morpholin-4-yl)pyridin-4-yl]phenyl}-3-(trifluoromethoxy)pyrrolidine-1-carboxamide], the IC50 was in the range of 1 to 10 nM.

For the compound `Cc1ccc(NC(=O)N2CCO[C@@H](C(F)(F)F)C2)cc1-c1cc(-c2ccnn2C)nc(N2CCOCC2)c1` [Example 65, (2R)—N-{4-methyl-3-[2-(2-methylpyrazol-3-yl)-6-(morpholin-4-yl)pyridin-4-yl]phenyl}-2-(trifluoromethyl)morpholine-4-carboxamide], the IC50 is under 1 nM.

Consider `Cc1ccc(NC(=O)N2CC=C(C(F)(F)F)C2)cc1-c1cc(-c2cnn(C)c2)nc(N2CCOCC2)c1` [Example 66, N-{4-methyl-3-[2-(1-methylpyrazol-4-yl)-6-(morpholin-4-yl)pyridin-4-yl]phenyl}-3-(trifluoromethyl)-2,5-dihydropyrrole-1-carboxamide], for which the IC50 is under 1 nM.

Consider `Cc1cc(F)c(NC(=O)N2CCO[C@H](C(F)(F)F)C2)cc1-c1cc(-c2cnn(C)c2)nc(N2CCOCC2)c1` [Example 67, (2S)—N-{2-fluoro-4-methyl-5-[2-(1-methylpyrazol-4-yl)-6-(morpholin-4-yl)pyridin-4-yl]phenyl}-2-(trifluoromethyl)morpholine-4-carboxamide], for which the half-inhibitory concentration (IC50) was under 1 nM.

For the compound `Cc1cc(F)c(NC(=O)N2CCO[C@@H](C(F)(F)F)C2)cc1-c1cc(-c2cnn(C)c2)nc(N2CCOCC2)c1` [Example 68, (2R)—N-{2-fluoro-4-methyl-5-[2-(1-methylpyrazol-4-yl)-6-(morpholin-4-yl)pyridin-4-yl]phenyl}-2-(trifluoromethyl)morpholine-4-carboxamide], the IC50 was under 1 nM.

Take `Cc1cc(F)c(NC(=O)N2CC=C(C(F)(F)F)C2)cc1-c1cc(-c2cnn(C)c2)nc(N2CCOCC2)c1` [Example 69, N-{2-fluoro-4-methyl-5-[2-(1-methylpyrazol-4-yl)-6-(morpholin-4-yl)pyridin-4-yl]phenyl}-3-(trifluoromethyl)-2,5-dihydropyrrole-1-carboxamide]: the IC50 was under 1 nM.

For `Cc1cc(-c2cc(NC(=O)N3CC[C@@H](CC(F)(F)F)C3)c(F)cc2C)cc(N2CCOCC2)n1` [Example 70, (3S)—N-{2-fluoro-4-methyl-5-[2-methyl-6-(morpholin-4-yl)pyridin-4-yl]phenyl}-3-(2,2,2-trifluoroethyl)pyrrolidine-1-carboxamide], the IC50 was under 1 nM.
